For one data set, the system named is thrombocyte aggregation. In words: Inhibitory effect on thrombocyte aggregation. The format is cell-based.
In a further data set the target is T1, Test thrombin (bovine) (Bos taurus, UniProt P00735).
T1 construct: purchased Behring Werke, Marburg
Briefly: Thrombin time in human citrated plasma (Biomatic B10 coagulometer). The format is biochemical. As for the experimental part: were investigated as follows for their effects on thrombin time:
Materials: plasma, from human citrated blood.
Test thrombin (bovine), 30U/mL, Behring Werke, Marburg
Diethylbarbiturate acetate buffer, ORWH 60/61, Behring Werke, Marburg
Biomatic B10 coagulometer, Sarstedt
The thrombin time was determined using a Biomatic B10 coagulometer made by Messrs. Sarstedt. As the test substance, 0.1 mL of human citrated plasma and 0.1 mL diethylbarbiturate buffer (DBA buffer) were added to the test strip prescribed by the manufacturer. The mixture was incubated for one minute at 37° C. The clotting reaction was started by the addition of 0.3 U test thrombin in 0.1 mL DBA buffer. The time is measured using the apparatus from the addition of the thrombin up to the clotting of the mixture. Mixtures to which 0.1 mL of DBA buffer were added were used as the controls.

The next data set concerns rats. The conditions noted are these: doses of up to 10 mg/kg i.v.
The mark [1] stands for this setting: concentration at which the thrombin time is double compared with the control, human citrated plasma, 0.3 U test thrombin (bovine), 37° C.

Like-named read-outs stand apart in the source and are kept apart here.

The values that follow come from patent publication US6710055B2, “Disubstituted bicyclic heterocycles, the preparation thereof, and their use as pharmaceutical compositions” (Boehringer Ingelheim Pharma GmbH & Co., KG, priority 1997, dated 2004).

On to `CN(Cc1nc2cc(C(=O)N(CCC(=O)O)c3ccccc3)ccc2s1)c1ccc(C(=N)N)cc1.Cl` [Example 16, 2-[N-(4-amidinophenyl)-N-methylaminomethyl]benzothiazol-5-yl-carboxyiic acid-N-phenyl-N-(2-hydroxycarbonylethyl)amide hydrochloride], for which the “inhibitory effect on thrombocyte aggregation” value in the data set on thrombocyte aggregation is given as “slight inhibitory effect”. As for `Cn1c(COc2ccc(C(=N)N)cc2)nc2cc(C(=O)N(CC(=O)O)c3ccccc3)ccc21` [C, 1-methyl-2-[(4-amidinophenyl)oxymethyl]benzimidazol-5-yl-carboxylic acid-N-phenyl-N-(hydroxycarbonylmethyl)amide], the “Thrombin time (ED200 in μM)” value on Test thrombin (bovine) (setting [1]) worked out at 0.15 µM. With `Cn1c(CNc2ccc(C(=N)N)cc2)nc2cc(C(=O)N(CCC(=O)O)c3ccccc3)ccc21` [D, 1-methyl-2-[N-(4-amidinophenyl)aminomethyl]benzimidazol-5-yl-carboxylic acid-N-phenyl-N-(2-hydroxycarbonylethyl)amide], the “Thrombin time (ED200 in μM)” value on Test thrombin (bovine) was determined as 0.03 µM. With `CCOC(=O)CCN(c1ccccc1)S(=O)(=O)c1ccc2c(c1)nc(CNc1ccc(C(=N)N)cc1)n2C.Cl`, the melting point fell in the range of 188 to 191 °C. As for `Cn1c(CCc2ccc(C(=N)N)cc2)nc2cc(C(=O)N(CCCC(=O)O)c3ccccc3)ccc21` [B, 1-methyl-2-[2-(4-amidinophenyl)ethyl]benzimidazol-5-yl-carboxylic acid-N-phenyl-N-(3-hydroxycarbonylpropyl)amide], the “Thrombin time (ED200 in μM)” value on Test thrombin (bovine) (setting [1]) amounted to 0.06 µM.

`[H]/N=C(/N)c1ccc(NCc2nc3cc(C(=O)N(CCC(=O)O)c4ccccn4)ccc3n2C)cc1` [G, 1-methyl-2-[N-(4-amidinophenyl)aminomethyl]benzimidazol-5-yl-carboxylic acid-N-(2-pyridyl)-N-(2-hydroxycarbonylethyl)amide]: the “acute toxic side effects” value with rats is reported as “no acute toxic side effects were observed”. Further, the “Thrombin time (ED200 in μM)” value on Test thrombin (bovine) was determined as 0.03 µM. For the compound `N=C(N)c1ccc(NCc2nc3cc(C(=O)N(CCC(=O)O)c4ccccc4)ccc3s2)cc1` [A, 2-[N-(4-amidinophenyl)aminomethyl]benzthiazole-5-carboxylic acid-N-phenyl-N-(2-carboxyethyl)amide], on Test thrombin (bovine) (setting [1]), the “Thrombin time (ED200 in μM)” value was 0.04 µM. In the case of `Cn1c(CCc2ccc(C(=N)N)cc2)nc2cc(C(=O)N(CCc3nnn[nH]3)c3ccccc3)ccc21` [F, 1-methyl-2-[2-(4-amidinophenyl)ethyl]benzimidazol-5-yl-carboxylic acid-N-phenyl-N-[2-(1H-tetrazol-5-yl)ethyl]amide], the “Thrombin time (ED200 in μM)” value on Test thrombin (bovine) (setting [1]) is 0.03 µM. With `Cn1c(CNc2ccc(C(=N)N)cc2)nc2cc(C(=O)N(CC(=O)O)c3ccccn3)ccc21` [E, 1-methyl-2-[N-(4-amidinophenyl)aminomethyl]benzimidazol-5-yl-carboxylic acid-N-(2-pyridyl)-N-(hydroxycarbonylmethyl)amide], the “Thrombin time (ED200 in μM)” value on Test thrombin (bovine) (setting [1]) was 0.09 µM.

Broadly, the melting point is the temperature of the solid-liquid transition.
